Patent US20080138397A1, “PROCESSES FOR TASTE-MASKING OF INHALED FORMULATIONS” (Aradigm Corporation, priority 2006, published 2008)

What was measured:
[1] = Human clinical trials of AERx-inhaled HCQ, pharmacokinetics blood sample analysis; format: in vivo; conditions: blood samples
Source text: Hydroxychloroquine or HCQ, known as a therapeutic for asthma and other respiratory diseases (U.S. Pat. No. 6,572,858), and administered by the inhalation route, is characterized by unpleasant taste. Formulation of HCQ, either singularly, or in combination, using one or more of the methods described above increases the therapeutic benefit of inhaled HCQ to treat asthma and other respiratory diseases. […] Thus, it would be an improvement to develop a formulation that provides a sustained release of HCQ in the lung, prolonging interaction of HCQ with the desired receptors in the lung tissue. Formulation strategies include encapsulation in liposomes or use of polymeric microspheres or nanospheres that slowly degrade and release HCQ. Other formulation strategies outlined previously can also be envisioned for such a formulation.

[2] = oral administration; extensive clearance via first pass metabolism; cited from earlier work
[3] = cited from earlier work

SMILES	absorption from the lung [1]	oral bioavailability [2]	half-life ([3]; in vivo) [h]	absorption time ([3]; inhalation delivery)	tolerability ([3]; inhalation delivery)
CCN(CCO)CCCC(C)Nc1ccnc2cc(Cl)ccc12 (centres unmarked) [HCQ, Hydroxychloroquine]	rapidly absorbed	–	–	–	–
CCCc1cc2c(s1)CN[C@@H]1CCc3cc(OC(C)=O)c(OC(C)=O)cc3[C@@H]21 [ABT-431]	–	less than 4%	2 to 3	less than 10 minutes	poor
